Results taken from paper PMC10451632, “Site Mutation Improves the Expression and Antimicrobial Properties of Fungal Defense” (Antibiotics, 2023).
≈ marks a conversion by molar mass, not a printed value. Bridge positions count the residues as written; N and C are the ends. Peptide text beside a SMILES is read from it.

Tests used:
[1] = Stability in simulated intestinal fluid, MIC read-out; assay type: in vitro ADME
Experimental: The stability of peptide PN7 in SGF, SIF, and 25% or 50% mouse serum was carried out as previously described. A final concentration of 1280 μg/mL PN7 was prepared and incubated at 37 °C and then diluted twice. The MIC was determined.

[2] = test system: mouse macrophages RAW264.7; test: Cytotoxicity, MTT assay; assay type: cell-based
Experimental: (§1) The cytotoxicity of PN7 was evaluated by MTT (Beyotime, Shanghai, China) assay.

human keratinocyte HaCaT = test: Cytotoxicity, MTT assay; assay type: cell-based; settings: HaCaT cells, at 128 mg/mL (so in the source)
Experimental: as §1

[3] = Thermal stability, MIC read-out; assay type: physicochemical; settings: 1 h, 1280 μg/mL in physiological saline, triplicate
Experimental: (§2) PN7 dissolved in physiological saline solution was prepared into mother liquor with a concentration of 1280 μg/mL and incubated at different temperatures for 1 h. PN7 was dissolved in different pH buffers at 37 °C for 4 h. After double gradient dilution, MIC assays were used to detect the change in antibacterial activity.

[4] = test system: Gram-negative bacteria such as Escherichia coli, Salmonella, and Pseudomonas aeruginosa; test: MIC against Gram-negative bacteria; assay type: cell-based; settings: Gram-negative bacteria (Table 6)
Experimental: (§3) The MIC value of PN7 against bacteria was determined by the microtiter broth dilution method. Briefly, bacteria grown to the exponential phase were diluted into MHB; subsequently, 90 μL of bacterial suspension (10^5 CFUs/mL) was mixed with 10 μL of different concentrations of PN7 in a sterilized 96-well microtiter plate (Nunc). MIC values were recorded after incubation for 16–18 h at 37 °C based on the lowest concentrations of peptides in which no visible bacterial growth was observed.

[5] = pH stability, MIC read-out; assay type: physicochemical; settings: pH from 2 to 10, buffers, 37 °C, 4 h, MIC read-out after dilution, triplicate
Experimental: as §2

S. aureus CICC 10473 = test: MIC, microtiter broth dilution; assay type: cell-based, Staphylococcus aureus; settings: MHB, 10^5 CFUs/mL, 16–18 h at 37 °C
Experimental: as §3

S. aureus ATCC 43300 = test: Salt stability, MIC read-out; assay type: cell-based, Staphylococcus aureus
Experimental: The influence of ions on PN7 activity was determined in two ways.
The first method of operation: PN7 was prepared into 1280 μg/mL mother liquor supplemented with 50, 100, 200, 300, and 500 mM NaCl (or KCl, MgCl2, CaCl2), then was diluted twice gradient by ddH2O. Then, 10 μL was added into 90 μL bacterial solution and cultured for 16–18 h to determine the MIC.
The second method of operation: 10 μL peptide solution and 10 μL NaCl (or KCl, MgCl2, CaCl2) solution with different concentrations were added to 80 μL bacterial solution. The final concentration of ions in the whole system was 50, 100, 150, 200, and 250 mM. The MIC against S. aureus ATCC 43300 was determined.

[6] = test system: Streptococcus. suis CVCC 606; test: MIC, microtiter broth dilution; assay type: cell-based; settings: MHB, 10^5 CFUs/mL, 16–18 h at 37 °C
Experimental: as §3

S. agalactiae CAU-FRI-4 = test: MIC, microtiter broth dilution; assay type: cell-based; settings: MHB, 10^5 CFUs/mL, 16–18 h at 37 °C
Experimental: as §3

S. pullorum CVCC 1789 = test: MIC, microtiter broth dilution; assay type: cell-based; settings: MHB, 10^5 CFUs/mL, 16–18 h at 37 °C
Experimental: as §3

[7] = test system: Salmonella enterica ATCC 13076; test: MIC, microtiter broth dilution; assay type: cell-based; settings: MHB, 10^5 CFUs/mL, 16–18 h at 37 °C
Experimental: as §3

[8] = test system: Escherichia coli CVCC 195; test: MIC, microtiter broth dilution; assay type: cell-based; settings: MHB, 10^5 CFUs/mL, 16–18 h at 37 °C
Experimental: as §3

[9] = test system: S. epidermidis ATCC 35984; test: MIC, microtiter broth dilution; assay type: cell-based; settings: MHB, 10^5 CFUs/mL, 16–18 h at 37 °C
Experimental: as §3

S. hyicus NCTC 10350 = test: MIC, microtiter broth dilution; assay type: cell-based; settings: MHB, 10^5 CFUs/mL, 16–18 h at 37 °C
Experimental: as §3

S. hyicus 437-2 = test: MIC, microtiter broth dilution; assay type: cell-based; settings: MHB, 10^5 CFUs/mL, 16–18 h at 37 °C
Experimental: as §3

S. enteritidis CVCC 3377 = test: MIC, microtiter broth dilution; assay type: cell-based; settings: MHB, 10^5 CFUs/mL, 16–18 h at 37 °C
Experimental: as §3

[10] = test system: Pseudomonas aeruginosa CICC 20625; test: MIC, microtiter broth dilution; assay type: cell-based; settings: MHB, 10^5 CFUs/mL, 16–18 h at 37 °C
Experimental: as §3

S. agalactiae ATCC 13813 = test: MIC, microtiter broth dilution; assay type: cell-based; settings: MHB, 10^5 CFUs/mL, 16–18 h at 37 °C
Experimental: as §3

With `CC[C@H](C)[C@@H]1NC(=O)[C@H](CO)NC(=O)[C@H](CCCCN)NC(=O)[C@@H]2CSSC[C@@H](C(=O)N[C@@H](Cc3ccc(O)cc3)C(=O)O)NC(=O)[C@H](CCCCN)NC(=O)[C@@H]3CSSC[C@H](NC(=O)[C@H](CCCNC(=N)N)NC(=O)CNC(=O)[C@H](CC(=O)O)NC(=O)[C@H](CC(=O)O)NC(=O)[C@H](CCC(=O)O)NC(=O)[C@H](Cc4ccc(O)cc4)NC(=O)[C@H](Cc4c[nH]c5ccccc45)NC(=O)[C@@H]4CCCN4C(=O)CNC(=O)[C@H](CC(N)=O)NC(=O)[C@@H](NC(=O)CNC(=O)[C@H](Cc4ccccc4)NC(=O)CN)CSSC[C@H](NC(=O)[C@H](Cc4ccc(O)cc4)NC(=O)CNC(=O)CNC(=O)[C@H](CCCCN)NC(=O)[C@H](Cc4ccc(O)cc4)NC(=O)CNC(=O)[C@H](CCCCN)NC1=O)C(=O)N[C@@H](C)C(=O)N[C@@H](CCCCN)C(=O)NCC(=O)NCC(=O)N[C@@H](Cc1ccccc1)C(=O)N[C@@H](C(C)C)C(=O)N3)C(=O)N[C@@H](Cc1c[nH]cn1)C(=O)N[C@@H](CC(N)=O)C(=O)N[C@@H](Cc1c[nH]cn1)C(=O)N2` [PN7] (H-GFGCNGPWYEDDGRCHNHCKSIKGYKGGYCAKGGFVCKCY-OH; disulfide 4-30, 15-37, 19-39 (inferred); N-terminus and C-terminus assumed) the “activity after incubation with simulated intestinal fluid (SIF)” value ([1]; 1280 μg/mL PN7, 37 °C, then two-fold dilution, triplicate) was “abolished the activity”, the sensitivity to trypsin ([1]; Figure 7E) was “sensitive to trypsin” and the survival ([2]; RAW264.7 and HaCaT cells (Figure 6B,C), 128 μg/mL) was greater than 85%. The cell viability ([2]; RAW264.7 cells, MTT, at 128 mg/mL (so in the source)) was 92.77%, the cell viability (human keratinocyte HaCaT) was 85.36% and the “thermal stability (antibacterial activity)” value ([3]; 20–80 °C) was “stable”. For the same compound, the “decrease of antibacterial activity” value ([3]; 100 °C) was 1 fold, the MIC [4] was “over 128 μg/mL” and the “pH stability (antibacterial activity)” value [5] was “stable”. For the same compound, the MIC (S. aureus CICC 10473) was 4 µg/mL (≈ 0.908 µM), the “influence of monovalent cations (Na+ and K+) on activity” value (S. aureus ATCC 43300; NaCl or KCl, MIC against S. aureus ATCC 43300) was “no influence” and the “MIC value after incubation with different ions” value (S. aureus ATCC 43300; mother liquor with 50–500 mM salt, then diluted with ddH2O) was “did not change”. For the same compound, the MIC [6] was 1 µg/mL (≈ 0.227 µM), the MIC (S. agalactiae CAU-FRI-4) was 1 µg/mL (≈ 0.227 µM) and the MIC (S. pullorum CVCC 1789) was greater than 128 µg/mL. The MIC [7] was greater than 128 µg/mL, the MIC [8] was greater than 128 µg/mL and the MIC [9] was 16 µg/mL (≈ 3.63 µM). The MIC (S. hyicus NCTC 10350) was 4 µg/mL (≈ 0.908 µM), the MIC (S. hyicus 437-2) was 8 µg/mL (≈ 1.82 µM) and the MIC (S. enteritidis CVCC 3377) was greater than 128 µg/mL. For the same compound, the MIC [10] was greater than 128 µg/mL and the MIC (S. agalactiae ATCC 13813) was 2 µg/mL (≈ 0.454 µM).
